Data from patent US20230131339A1, “EPI-X4 BASED PEPTIDES AND DERIVATIVES THEREOF” (Universitaet Ulm, priority 2020, published 2023).
Where two headings read alike, the source gives them in different places. Where a SMILES comes first, the peptide text is derived from it. Where no end group is shown, it is not given here. Side-chain parts run from the residue outwards. [ ]: non-standard residue; d: D form. The star is where a group is joined. Palmitoyl = CCCCCCCCCCCCCCCC(=O)*; Myristoyl = CCCCCCCCCCCCCC(=O)*; Glu = glutamate linker

Assays:
[1] = tested on: CXCL12-induced AKT signaling; assay: ERK/AKT signaling assay in SupT1 cells: AKT phosphorylation; assay type: cell-based
Experimental: (§1) Third, the activity of the claimed EPI-X4 derivatives was tested by the effect on CXCL12/CXCR4-mediated ERK (Extracellular-signal Regulated Kinases) and AKT (a serine/threonine-protein kinase) signaling (FIG. 3). In that assay CXCR4 expressing cells are stimulated with the CXCR4 chemokine-ligand CXCL12, which subsequently leads to phosphorylation of ERK and AKT. Preincubation of cells with CXCR4-antagonists blocks those pathways. […] Two or three independent experiments were carried out in triplicates for each peptide in each assay. The error bars refer to the standard deviation.
(§2) ERK/AKT signaling assay. CXCL12 induced ERK and AKT phosphorylation was determined in SupT1 cells. For this, 100,000 cells were seeded per well in a 96-V well plate in 100 μl medium supplemented with 1% FCS. Cells were incubated for 2 hours at 37° C. before 5 μl of compounds were added. After 15 min incubation at 37° C. cells were stimulated by adding 5 μl CXCL12 diluted in PBS to reach a final concentration of 100 ng/ml. Cells were further incubated for 2 min before the reaction was stopped by adding 20 μl of 10% PFA. Cells were fixed for 15 min at 4° C. before PFA was removed and cells permeabilized by adding 100 μl ice cold methanol. After 15 min at 4° C. the methanol was removed, cells were washed and 30 μl primary antibody was added (phospho-p44/42 MAPK (Erk1) (Tyr204)/(Erk2) (Tyr187) (D1H6G) mouse mAb #5726; phosphor-Akt (Ser473) (193H12) rabbit mAb #4058 Cell Signaling) for 1 hour at 4° C. After the antibody was removed and cells were washed secondary antibody was added for 30 min. Cells were washed afterwards and subsequently analyzed by flow cytometry.

[2] = tested on: CXCL12-induced ERK signaling; assay: ERK/AKT signaling assay in SupT1 cells: ERK phosphorylation; assay type: cell-based
Experimental: as §1, §2

[3] = Functional stability assay in human plasma; settings: human, plasma
Experimental: Fourth, the stability of peptides in human plasma and whole human blood was tested (FIG. 4). The functional stability of EPI-X4 (SEQ ID NO.: 1) derivatives was screened using a CXCR4 antibody-based screening approach. Peptides were diluted in full human plasma or blood (>99%) and the functional activity was then measured after either 2 hours or 8 hours and compared to a sample that was not incubated in plasma or blood.
In this test, the peptides were incubated in human plasma for a certain time period.
Stability assay. Whole blood was collected from healthy donors in EDTA tubes and directly used or subsequently centrifuged for 15 min at 2,500×g to obtain plasma. Plasma from 6 donors was pooled and stored in aliquots at −80° C. Compounds were 200-fold diluted in human plasma or whole human blood to reach final concentrations of 20 μM. The t=0 sample was immediately taken and stored at −80° C. Plasma/compound or blood/compound mixture was then transferred to 37° C. and shook at 350 rpm. At given time points samples were taken and stored at −80° C.°. For measuring the functional activity of the plasma/peptide samples, the mixtures were thawed and diluted in ice cold PBS. 12G5-APC antibody competition was then performed as described before. For blood/peptide functional stability, samples were thawed and centrifuged at 14,000 rpm to remove cells and debris. The supernatant was then diluted in PBS and 12G5-antibody competition assay was performed. After the 2 hours incubation, the cells were washed and 50 μl of 1-step-Fix/Lyse solution (Thermo Fisher #00-5333-54) was added for 15 minutes at room temperature. Afterwards cells were washed again and analyzed for bound antibody.

[4] = tested on: CXCL12 induced migration of T-cells; assay: Migration assay (transwell, Jurkat cells); assay type: cell-based
Experimental: For each peptide, three independent experiments were performed. The error bars refer to the standard deviation.
Migration assay. Migration assays were performed using 96-well transwell assay plates (Corning Incorporated, Kennebunk, Me., USA) with 5 μm polycarbonate filters. […] Next, 75 μL (0.5×10^5 cells) of Jurkat cells (in assay buffer), together with/without the compounds, were added into the upper chambers. After 4 h at 37° C. (5% CO2), 100 μL of the lower chambers were transferred to a fresh 96 V-well plate and analyzed with Cell-Titer-Glo® assay (Promega, Madison, Wis., USA). The percentage of migrated cells was calculated as described by Balabanian et al. (2005). In order to obtain the relative migration in %, the percentage of migrated cells were normalized to the CXCL12-only control.

[5] = tested on: CXCR4-tropic X4-HIV-1 (NL4-3); assay type: cell-based
Experimental: The activity of the peptides was estimated by different assays.
The X4-HIV inhibition assay is designed to measure the activity of the inventive peptides by their efficiency of blocking the infection of tissue culture cells by CXCR4-tropic HIV-1 variants.
HIV-1 inhibition assay. […] For infection of TZM-bl cells in presence of inhibitors, cells were seeded at a density of 1×10^5 cells/ml in 70 μl DMEM containing 2.5% FCS. Compounds were diluted in PBS and 10 μl were added. After 15 minutes of incubation cells were inoculated with 20 μl of diluted virus. Infection rates were determined three days later using Gal-Screen system (Applied Biosystems).

CXCR4 = biological target: T1, CXCR4 (Homo sapiens, UniProt P61073); assay: Antibody competition assay (12G5-assay) on SupT1 cells; assay type: binding
T1 construct: endogenous in cells; host or cells: SupT1 cells
Experimental: Second, the activity was tested by an antibody competition assay (FIG. 2). Values determined by the competition assay represent the potency of a compound to compete with an antibody that specifically binds to the binding pocket (ECL2) of CXCR4. […] To the right of the diagrams, an assignment of the curves to the tested peptides is explained. […] Three independent experiments were carried out for each peptide in each assay. The error bars refer to the standard deviation.
(§3) Antibody competition assay. Competition of compounds with antibody binding was performed on SupT1 cells. For that cells were washed in PBS containing 1% FCS and 50,000 cells were then seeded per well in a 96 V-well plate. Buffer was removed and plates were precooled at 4° C. Compounds were diluted in PBS and antibody (clone 12G5, APC labelled) was diluted in PBS containing 1% FCS. The antibody was used at a concentration closed to its determined Kd. 15 μl compounds were then added to the cells and 15 μl antibody immediately afterwards. Plates were incubated at 4° C. in the dark for 2 hours. Afterwards cells were washed twice with PBS containing 1% FCS and fixed with 2% PFA. Antibody binding was analyzed by flow cytometry (FACS CytoFLEX; Beckman Coulter®).

[6] = biological target: T2, CXC chemokine receptor type 4 (CXCR4) (human, UniProt P61073 1-352); assay: 12G5-APC antibody competition on SupT1 cells, flow cytometry
T2 construct: whole, on cells
Experimental: To the right of the diagrams, an assignment of the curves to the tested peptides is explained. […] Three independent experiments were carried out for each peptide in each assay. The error bars refer to the standard deviation.
as §3, with “Compounds were diluted in PBS and antibody (clone 12G5, APC labelled) was diluted in PBS containing 1% FCS.” left out

[7] = biological target: T2, CXC chemokine receptor type 4 (CXCR4); assay: cell-based or functional assay
[8] = biological target: T3, CXC chemokine receptor type 4 (CXCR4) (human, UniProt P61073 1-352); assay: competition
T3 chain: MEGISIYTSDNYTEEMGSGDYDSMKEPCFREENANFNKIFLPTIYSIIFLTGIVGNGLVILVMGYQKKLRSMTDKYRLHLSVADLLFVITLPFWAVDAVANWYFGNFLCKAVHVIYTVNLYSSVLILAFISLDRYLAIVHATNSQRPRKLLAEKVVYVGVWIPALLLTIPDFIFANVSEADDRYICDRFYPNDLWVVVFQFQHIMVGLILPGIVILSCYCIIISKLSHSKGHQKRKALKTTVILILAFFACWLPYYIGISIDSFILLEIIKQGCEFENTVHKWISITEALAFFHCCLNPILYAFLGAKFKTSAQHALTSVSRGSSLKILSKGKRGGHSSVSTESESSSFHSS

CC[C@H](C)[C@H](N)C(=O)N[C@@H](CC(C)C)C(=O)N[C@@H](CCCNC(=N)N)C(=O)N[C@@H](Cc1c[nH]c2ccccc12)C(=O)N[C@@H](CO)C(=O)N[C@@H](CCCNC(=N)N)C(=O)N[C@@H](CCCCN)C(=O)N[C@@H](CCSC)C(=O)N1CCC[C@H]1C(=O)N[C@@H](CS)C(=O)N[C@@H](CC(C)C)C(=O)N[C@@H](CO)C(=O)O [JM #18] (H-ILRWSRKMPCLS-OH; C-terminus assumed)
reduction of CXCL12-induced AKT signaling ([1]; 0.1 μM): about 40% | reduction of CXCL12-induced AKT signaling ([1]; 1 μM): ~70% | reduction of CXCL12-induced ERK signaling ([2]; 0.1 μM): about 40% | reduction of CXCL12-induced ERK signaling ([2]; 1 μM): ~70%

CCCCCCCCCCCCCCCC(=O)NCCCC[C@H](NC(=O)[C@H](CCCCN)NC(=O)[C@H](CO)NC(=O)[C@H](Cc1c[nH]c2ccccc12)NC(=O)[C@H](CCCNC(=N)N)NC(=O)[C@@H](NC(=O)[C@@H](N)[C@@H](C)CC)C(C)C)C(=O)N[C@H](C(=O)N1CCC[C@H]1C(=O)N[C@@H](CS)C(=O)N[C@H](C(=O)N[C@@H](CO)C(=O)O)C(C)C)C(C)C [JM #169, IVRWSKK(Pal)VPCVS] (H-IVRWSKK(Palmitoyl)VPCVS-OH; C-terminus assumed)
reduction of CXCL12-induced AKT signaling ([1]; 0.1 μM): 85% | reduction of CXCL12-induced AKT signaling ([1]; 1 μM): completely | reduction of CXCL12-induced ERK signaling ([2]; 0.1 μM): over 70% | reduction of CXCL12-induced ERK signaling ([2]; 1 μM): almost completely blocked

CC[C@H](C)[C@H](N)C(=O)N[C@@H](CC(C)C)C(=O)N[C@@H](CCCNC(=N)N)C(=O)N[C@@H](Cc1c[nH]c2ccccc12)C(=O)N[C@@H](CO)C(=O)N[C@@H](CCCNC(=N)N)C(=O)N[C@@H](CCCCN)C(=O)N[C@@H](CC(C)C)C(=O)N1CCC[C@H]1C(N)=O [JM #114] (H-ILRWSRKLP-NH2)
functional stability in human plasma (in words) [3]: rapidly inactivated in plasma | inhibition of CXCL12 induced migration of T-cells (in words) [4]: even more effective than the full-length peptide

CCCCCCCCCCCCCCCC(=O)NCCCC[C@H](NC(=O)[C@H](CCCNC(=N)N)NC(=O)[C@H](CO)NC(=O)[C@H](Cc1c[nH]c2ccccc12)NC(=O)[C@H](CCCNC(=N)N)NC(=O)[C@H](CCSC)NC(=O)[C@H](N)CC(C)C)C(N)=O [JM #180, d-LMRWSRK(Pal)-NH2] (H-[dL]MRWSRK(Palmitoyl)-NH2)
anti-HIV-1 activity (in words) [5]: strongly increased anti-HIV-1 activity | remaining activity in plasma in vivo 4 hours post injection (mice, i.v. tail vein, 4 hours post injection): 29% | remaining activity in plasma in vivo 8 hours post injection (mice, i.v. tail vein, 8 hours post injection): about 9%

ILRWSRK(Glu-Myr)LPCVS (ILRWSRK([Glu-Myristoyl])LPCVS) [JM #204]
remaining activity in plasma in vivo 4 hours post injection (mouse, in vivo, iv, 4 h): lost

SC069: DSPE-coupled derivative (via PEG), two peptide copies on one end (ILRWSRKLPCVS; also: DSPE-coupled via PEG, two peptide copies on one end)
anti-HIV-1 activity (in words) [5]: higher activity than cholesterol-coupled SC043 | antibody competition / binding to CXCR4 (in words) (CXCR4): higher activity than cholesterol-coupled SC043

B1: JM#167 (peptide)
peptide: IVRWSKK(Palmitoyl)VP-NH2
modifications: N-terminus assumed
SMILES: CCCCCCCCCCCCCCCC(=O)NCCCC[C@H](NC(=O)[C@H](CCCCN)NC(=O)[C@H](CO)NC(=O)[C@H](Cc1c[nH]c2ccccc12)NC(=O)[C@H](CCCNC(=N)N)NC(=O)[C@@H](NC(=O)[C@@H](N)[C@@H](C)CC)C(C)C)C(=O)N[C@H](C(=O)N1CCC[C@H]1C(N)=O)C(C)C
fold more effective binding than EPI-X4 [6]: > 2000 fold | fold more effective than WSC02 [6]: ~300 fold

B2: JM#178 (peptide)
peptide: [dL]MRWSRK(Palmitoyl)MP-NH2
modifications: N-terminus assumed
SMILES: CCCCCCCCCCCCCCCC(=O)NCCCC[C@H](NC(=O)[C@H](CCCNC(=N)N)NC(=O)[C@H](CO)NC(=O)[C@H](Cc1c[nH]c2ccccc12)NC(=O)[C@H](CCCNC(=N)N)NC(=O)[C@H](CCSC)NC(=O)[C@H](N)CC(C)C)C(=O)N[C@@H](CCSC)C(=O)N1CCC[C@H]1C(N)=O
IC50, HIV inhibition assay [7]: 5 to 10 nM | fold more effective binding than EPI-X4 [6]: > 2000 fold | fold more effective than WSC02 [6]: ~300 fold

ILRWSRK([Glu-Palmitoyl])-NH2 [JM#192]
IC50 [8]: 4 nM

ILRWSRK(Ac)LPCVS [JM#200]
IC50 [8]: 213 nM | IC50, HIV inhibition assay [7]: 50 to 150 nM
